These are literature values, as cited in publication PMC6780087 (Marine Drugs, 2019).

Data set [1] relates to NaChBac. The note with it: ref [55].
In data set [2] the test system is NaChBac. The note with it: ref [54].

As to `CC(C)c1cccc(C(C)C)c1O` [propofol], the “binding to NaChBac” value with NaChBac [1] is “binding to multiple channel sites”. Moreover, the “effect on NaChBac” value in the data set with NaChBac [2] is “inhibits peak currents and promotes activation-linked inactivation in NaChBac”.
